The results in this text go back to ChEMBL document CHEMBL1156255, “Hit to lead optimization of pyrazolo[1,5-a]pyrimidines as B-Raf kinase inhibitors” (Bioorg Med Chem Lett, 2009).

For orientation: IC50 means the concentration that gives 50% inhibition. What is called half-life is the time in which the quantity being followed falls by half.

In data set [1] the target is Serine/threonine-protein kinase B-raf (Homo sapiens, UniProt P15056). Nature of the data set: Inhibition of b-Raf.
Data set [2] is described as follows: Antiproliferative activity against human WM266.4 cells. To be noted: WM 266-4. It counts as functional, cell-based.
Data set [3] addresses Insulin-like growth factor 1 receptor (Homo sapiens, UniProt P08069). The experiment in a line: Inhibition of IGFR1.
The target in data set [4] is Proto-oncogene tyrosine-protein kinase Src (Homo sapiens, UniProt P12931). Nature of the data set: Inhibition of Src.
The target of data set [5] is MAP kinase-activated protein kinase 2 (Homo sapiens, UniProt P49137). Nature of the data set: Inhibition of MK2.
For data set [6], the target named is Mitogen-activated protein kinase 1 (Homo sapiens, UniProt P28482). The experiment in a line: Inhibition of ERK2.
For another data set, the system named is A-375. The experiment in a line: Antiproliferative activity against human A375 cells. It counts as functional, cell-based.
The test system of another data set is LoVo. Nature of the data set: Antiproliferative activity against human LoVo cells. Type of data set: functional, cell-based.
For data set [7], the target named is Mitogen-activated protein kinase kinase kinase 8 (Homo sapiens, UniProt P41279). The experiment in a line: Inhibition of TPL2.
Data set [8] addresses Serine/threonine-protein kinase PLK1 (Homo sapiens, UniProt P53350). Nature of the data set: Inhibition of PLK1.
Data set [9] addresses Mitogen-activated protein kinase 14 (Homo sapiens, UniProt Q16539). The experiment in a line: Inhibition of P38alpha.
Data set [10] concerns the target Serine/threonine-protein kinase Chk1 (Homo sapiens, UniProt O14757). Nature of the data set: Inhibition of CHK1.
Data set [11] in a line: Metabolic stability in nude mouse microsomes assessed as half life. Type of data set: ADME, Microsome.
Data set [12] in a line: Half life in rat microsomes. Type of data set: ADME, Microsome.
Data set [13] has as its target Serine/threonine-protein kinase mTOR (Homo sapiens, UniProt P42345). Nature of the data set: Inhibition of mTOR.
For data set [14], the target named is Cyclin-dependent kinase 2 (Homo sapiens, UniProt P24941). Nature of the data set: Inhibition of CDK2.
Data set [15] in a line: Inhibition of CK1gamma.
For data set [16], the target named is 3-phosphoinositide-dependent protein kinase 1 (Homo sapiens, UniProt O15530). Nature of the data set: Inhibition of PDK1.
The target in data set [17] is Rho-associated protein kinase 1 (Homo sapiens, UniProt Q13464). Nature of the data set: Inhibition of ROCK1.
Data set [18] concerns the target Inhibitor of nuclear factor kappa-B kinase subunit beta (Homo sapiens, UniProt O14920). Nature of the data set: Inhibition of IKK-beta.
The target in data set [19] is Protein kinase C alpha type (Homo sapiens, UniProt P17252). The experiment in a line: Inhibition of PKCalpha.
Data set [20] in a line: Inhibition of p70S6K.
Data set [21] deals with RAC-alpha serine/threonine-protein kinase (Homo sapiens, UniProt P31749). Nature of the data set: Inhibition of PKBalpha.
Data set [22] addresses Protein kinase C beta type (Homo sapiens, UniProt P05771). Nature of the data set: Inhibition of PKCbeta.
Data set [23] can be described thus: Inhibition of RSK.
Data set [24] addresses Tyrosine-protein kinase Fyn (Homo sapiens, UniProt P06241). The experiment in a line: Inhibition of Fyn.
Data set [25] concerns the target Mitogen-activated protein kinase 8 (Homo sapiens, UniProt P45983). The experiment in a line: Inhibition of JNK1.
The next data set has as its system BXPC-3. The experiment in a line: Antiproliferative activity against human BxPC3 cells. Type of data set: functional, cell-based.
In data set [26] the target is Phosphatidylinositol 4,5-bisphosphate 3-kinase catalytic subunit alpha isoform (Homo sapiens, UniProt P42336). The experiment in a line: Inhibition of PI3Kalpha.
The target of data set [27] is Tyrosine-protein kinase ABL1 (Homo sapiens, UniProt P00519). The experiment in a line: Inhibition of Abl1.
The next data set concerns HT-29. The experiment in a line: Antiproliferative activity against human HT-29 cells. It counts as functional, cell-based.
A further data set relates to Caco-2. Nature of the data set: Antiproliferative activity against human Caco-2 cells. It counts as functional, cell-based.
Data set [28] concerns the target Mitogen-activated protein kinase kinase kinase kinase 2 (Homo sapiens, UniProt Q12851). The experiment in a line: Inhibition of GCK.
Data set [29] is described as follows: Inhibition of PKA.
Data set [30] deals with Cyclin-dependent kinase 1 (Homo sapiens, UniProt P06493). Nature of the data set: Inhibition of CDK1.
The target of data set [31] is Tyrosine-protein kinase Lck (Homo sapiens, UniProt P06239). Nature of the data set: Inhibition of LCK.
Data set [32] can be described thus: Permeability at pH 7.4 by PAMPA. Type of data set: ADME. Particulars: read-out: permeability. On the technique in general: In PAMPA a lipid-coated filter parts donor from acceptor wells.

Sequence of Serine/threonine-protein kinase B-raf (P15056 whole entry): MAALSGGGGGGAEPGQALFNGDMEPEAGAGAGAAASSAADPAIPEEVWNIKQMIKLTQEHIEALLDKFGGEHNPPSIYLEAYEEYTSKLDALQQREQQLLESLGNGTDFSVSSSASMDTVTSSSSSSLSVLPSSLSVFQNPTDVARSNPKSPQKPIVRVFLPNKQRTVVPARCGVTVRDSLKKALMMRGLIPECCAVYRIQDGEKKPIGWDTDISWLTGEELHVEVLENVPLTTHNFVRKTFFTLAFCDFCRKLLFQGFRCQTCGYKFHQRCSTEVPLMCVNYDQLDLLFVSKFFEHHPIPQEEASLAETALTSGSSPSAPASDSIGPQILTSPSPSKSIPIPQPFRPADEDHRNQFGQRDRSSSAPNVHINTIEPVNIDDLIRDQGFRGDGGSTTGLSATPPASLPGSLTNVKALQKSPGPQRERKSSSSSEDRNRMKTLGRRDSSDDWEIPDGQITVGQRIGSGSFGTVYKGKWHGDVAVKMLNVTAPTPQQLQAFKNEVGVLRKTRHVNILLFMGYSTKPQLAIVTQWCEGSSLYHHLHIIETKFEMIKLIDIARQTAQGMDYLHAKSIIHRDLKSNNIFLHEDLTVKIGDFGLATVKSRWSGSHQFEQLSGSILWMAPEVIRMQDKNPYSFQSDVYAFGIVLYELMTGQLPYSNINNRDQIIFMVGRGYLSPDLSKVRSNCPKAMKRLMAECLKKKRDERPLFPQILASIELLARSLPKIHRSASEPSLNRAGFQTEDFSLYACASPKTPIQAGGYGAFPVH
Sequence of 3-phosphoinositide-dependent protein kinase 1 (O15530 whole entry): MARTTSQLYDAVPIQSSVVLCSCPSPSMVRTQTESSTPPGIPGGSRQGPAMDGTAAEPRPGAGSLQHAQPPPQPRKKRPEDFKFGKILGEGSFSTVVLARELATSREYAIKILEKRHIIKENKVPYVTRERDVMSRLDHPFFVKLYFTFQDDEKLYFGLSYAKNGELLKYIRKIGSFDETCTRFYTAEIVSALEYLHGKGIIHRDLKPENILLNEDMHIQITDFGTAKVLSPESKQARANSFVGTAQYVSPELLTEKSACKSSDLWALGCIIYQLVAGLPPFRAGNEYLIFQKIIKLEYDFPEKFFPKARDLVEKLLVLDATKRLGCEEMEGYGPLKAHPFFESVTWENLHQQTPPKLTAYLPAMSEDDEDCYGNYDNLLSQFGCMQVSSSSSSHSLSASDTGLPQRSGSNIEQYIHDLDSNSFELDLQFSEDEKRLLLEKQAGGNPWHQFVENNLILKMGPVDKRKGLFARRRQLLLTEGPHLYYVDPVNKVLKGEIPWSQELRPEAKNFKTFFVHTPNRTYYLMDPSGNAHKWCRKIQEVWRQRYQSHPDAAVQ
Sequence of Mitogen-activated protein kinase kinase kinase kinase 2 (Q12851 whole entry): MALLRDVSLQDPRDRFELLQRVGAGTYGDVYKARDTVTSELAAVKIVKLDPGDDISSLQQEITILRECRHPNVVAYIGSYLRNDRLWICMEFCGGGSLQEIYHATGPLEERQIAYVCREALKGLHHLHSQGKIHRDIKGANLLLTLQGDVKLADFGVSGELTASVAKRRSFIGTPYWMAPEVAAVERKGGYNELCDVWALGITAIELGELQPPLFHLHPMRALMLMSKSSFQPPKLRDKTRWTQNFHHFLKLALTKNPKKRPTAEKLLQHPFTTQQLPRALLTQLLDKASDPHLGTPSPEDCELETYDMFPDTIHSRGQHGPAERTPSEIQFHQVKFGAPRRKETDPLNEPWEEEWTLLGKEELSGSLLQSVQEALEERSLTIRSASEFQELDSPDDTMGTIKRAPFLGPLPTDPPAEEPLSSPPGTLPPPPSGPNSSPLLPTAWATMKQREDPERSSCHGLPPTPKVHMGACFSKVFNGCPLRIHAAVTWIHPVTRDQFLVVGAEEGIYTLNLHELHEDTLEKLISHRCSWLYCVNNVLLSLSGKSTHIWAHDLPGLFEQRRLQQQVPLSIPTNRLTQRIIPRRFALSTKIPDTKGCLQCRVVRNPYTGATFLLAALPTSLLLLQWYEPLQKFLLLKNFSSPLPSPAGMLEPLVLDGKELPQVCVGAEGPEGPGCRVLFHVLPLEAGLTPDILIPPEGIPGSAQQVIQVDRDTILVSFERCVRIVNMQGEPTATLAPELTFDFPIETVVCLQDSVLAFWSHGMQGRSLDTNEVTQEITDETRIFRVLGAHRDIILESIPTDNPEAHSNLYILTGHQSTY
Sequence of Tyrosine-protein kinase ABL1 (P00519 whole entry): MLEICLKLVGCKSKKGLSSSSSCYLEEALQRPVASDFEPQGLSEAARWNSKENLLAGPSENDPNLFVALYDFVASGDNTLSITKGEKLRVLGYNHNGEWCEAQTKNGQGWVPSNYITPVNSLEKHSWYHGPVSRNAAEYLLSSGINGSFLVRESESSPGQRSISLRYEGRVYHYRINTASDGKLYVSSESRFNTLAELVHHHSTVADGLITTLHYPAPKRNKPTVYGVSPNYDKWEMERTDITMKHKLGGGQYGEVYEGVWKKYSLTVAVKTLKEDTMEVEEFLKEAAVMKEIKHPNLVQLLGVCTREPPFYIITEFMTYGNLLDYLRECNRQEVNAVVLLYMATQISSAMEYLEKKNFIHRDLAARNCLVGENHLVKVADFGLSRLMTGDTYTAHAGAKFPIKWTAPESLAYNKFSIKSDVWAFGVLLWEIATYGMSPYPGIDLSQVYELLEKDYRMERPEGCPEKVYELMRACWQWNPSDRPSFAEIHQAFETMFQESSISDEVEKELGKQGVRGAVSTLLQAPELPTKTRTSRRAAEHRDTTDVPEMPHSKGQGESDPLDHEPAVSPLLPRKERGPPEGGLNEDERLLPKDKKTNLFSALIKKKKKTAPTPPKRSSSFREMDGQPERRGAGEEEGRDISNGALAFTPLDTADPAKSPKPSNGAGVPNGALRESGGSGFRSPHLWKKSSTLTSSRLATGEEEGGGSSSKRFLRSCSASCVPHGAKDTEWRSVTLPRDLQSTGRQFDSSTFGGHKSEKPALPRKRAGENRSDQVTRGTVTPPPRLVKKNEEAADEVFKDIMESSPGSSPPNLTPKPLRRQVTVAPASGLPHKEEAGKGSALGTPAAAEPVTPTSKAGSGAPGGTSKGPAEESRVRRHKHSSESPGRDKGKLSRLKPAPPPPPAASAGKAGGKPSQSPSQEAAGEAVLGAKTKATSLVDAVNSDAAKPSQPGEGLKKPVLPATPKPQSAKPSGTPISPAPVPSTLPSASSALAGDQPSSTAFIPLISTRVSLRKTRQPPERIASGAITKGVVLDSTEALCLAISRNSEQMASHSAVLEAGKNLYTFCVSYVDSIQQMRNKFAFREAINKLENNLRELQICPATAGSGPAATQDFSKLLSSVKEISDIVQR
Sequence of Mitogen-activated protein kinase 14 (Q16539 whole entry): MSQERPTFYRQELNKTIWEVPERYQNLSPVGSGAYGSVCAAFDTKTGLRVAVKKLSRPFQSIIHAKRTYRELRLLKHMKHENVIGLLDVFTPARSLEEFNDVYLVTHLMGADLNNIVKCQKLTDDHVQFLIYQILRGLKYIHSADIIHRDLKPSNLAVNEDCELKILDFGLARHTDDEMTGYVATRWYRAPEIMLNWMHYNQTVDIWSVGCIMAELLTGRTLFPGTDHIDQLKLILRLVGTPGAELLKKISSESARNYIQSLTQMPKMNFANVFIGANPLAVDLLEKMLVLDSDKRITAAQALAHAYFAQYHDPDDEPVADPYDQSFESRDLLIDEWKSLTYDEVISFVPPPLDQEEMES
Sequence of Mitogen-activated protein kinase 1 (P28482 whole entry): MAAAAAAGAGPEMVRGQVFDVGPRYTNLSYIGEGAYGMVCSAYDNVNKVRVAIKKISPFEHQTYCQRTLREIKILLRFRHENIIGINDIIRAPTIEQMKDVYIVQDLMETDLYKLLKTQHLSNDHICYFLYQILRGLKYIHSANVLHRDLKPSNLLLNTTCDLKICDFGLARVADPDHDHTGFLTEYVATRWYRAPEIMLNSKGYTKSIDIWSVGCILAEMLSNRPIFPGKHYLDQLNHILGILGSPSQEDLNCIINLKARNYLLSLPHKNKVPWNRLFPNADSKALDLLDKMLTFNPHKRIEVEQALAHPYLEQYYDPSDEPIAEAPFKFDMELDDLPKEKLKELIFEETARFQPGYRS
Sequence of Mitogen-activated protein kinase 8 (P45983 whole entry): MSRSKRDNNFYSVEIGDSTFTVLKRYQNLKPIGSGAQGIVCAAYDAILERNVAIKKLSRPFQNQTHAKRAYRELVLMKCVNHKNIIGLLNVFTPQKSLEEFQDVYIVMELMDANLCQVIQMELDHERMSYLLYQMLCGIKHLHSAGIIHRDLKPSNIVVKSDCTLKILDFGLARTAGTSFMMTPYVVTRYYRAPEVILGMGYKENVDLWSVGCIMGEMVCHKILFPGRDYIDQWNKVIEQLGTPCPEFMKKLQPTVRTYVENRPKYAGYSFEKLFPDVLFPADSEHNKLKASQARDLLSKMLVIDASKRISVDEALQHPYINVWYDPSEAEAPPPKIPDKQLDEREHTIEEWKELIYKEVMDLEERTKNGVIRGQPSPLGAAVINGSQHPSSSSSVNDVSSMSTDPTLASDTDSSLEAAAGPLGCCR
Sequence of Serine/threonine-protein kinase PLK1 (P53350 whole entry): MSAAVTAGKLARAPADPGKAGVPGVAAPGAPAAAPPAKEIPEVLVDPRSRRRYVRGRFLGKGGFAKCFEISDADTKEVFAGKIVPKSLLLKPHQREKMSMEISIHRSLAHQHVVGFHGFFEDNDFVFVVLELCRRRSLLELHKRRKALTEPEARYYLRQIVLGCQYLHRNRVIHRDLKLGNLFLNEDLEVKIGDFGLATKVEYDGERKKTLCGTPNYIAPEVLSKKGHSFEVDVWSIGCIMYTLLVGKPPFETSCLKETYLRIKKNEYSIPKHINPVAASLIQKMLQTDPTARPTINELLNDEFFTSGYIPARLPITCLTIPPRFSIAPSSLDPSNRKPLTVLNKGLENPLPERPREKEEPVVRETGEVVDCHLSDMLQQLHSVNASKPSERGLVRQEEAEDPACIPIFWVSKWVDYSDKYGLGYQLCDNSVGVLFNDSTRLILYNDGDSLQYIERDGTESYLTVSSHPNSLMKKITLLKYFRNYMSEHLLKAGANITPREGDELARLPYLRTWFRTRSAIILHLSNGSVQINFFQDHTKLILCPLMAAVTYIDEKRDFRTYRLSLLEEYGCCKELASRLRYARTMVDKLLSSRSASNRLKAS

As for `O=C(Nc1cccc(-c2ccnc3cc(-c4ccnc(NCCCN5CCCC5=O)c4)nn23)c1)c1cccc(C(F)(F)F)c1`, in data set [1], 0.11 µM corresponded to half-maximal inhibition (IC50).
Consider `O=C(Nc1cccc(-c2ccnc3cc(-c4ccncc4)nn23)c1)c1cccc(C(F)(F)F)c1`, for which the IC50 in [2] was 3.5 µM; in data set [3], over 50 µM; in [4], over 50 µM; in [5], over 50 µM; in [6] it was over 50 µM; in the data set with A-375, 0.28 µM. The half-inhibitory concentration (IC50) with LoVo was 0.4 µM; in [7] it was over 50 µM; in [8], over 50 µM; in data set [9] it was over 50 µM; in [10] it was over 50 µM; in data set [13], over 50 µM. Moreover, the concentration for half-maximal inhibition (IC50) in data set [14], in [15], in data set [16], in [17], in data set [18] and in [19] was over 50 µM in each case. Moreover, the IC50 in data set [20], in data set [21], in data set [22], in [23], in data set [24] and in data set [25] was over 50 µM each time. Besides, the IC50 was 3.1 µM with BXPC-3; over 50 µM in data set [26]; over 50 µM in data set [27]; 0.35 µM with HT-29; 2.6 µM with Caco-2; over 50 µM in data set [28]. In addition, the IC50 in [29], in data set [30] and in data set [31] was over 50 µM in each case. In addition, the results for the half-life in [11] and in [12] were 24 min and over 30 min, respectively. Moreover, the Papp in data set [32] stood at 251 ×10⁻⁶ cm/s.
The compound `O=C(Nc1cccc(-c2ccnc3cc(-c4ccncc4)nn23)c1)Nc1ccc(Cl)c(C(F)(F)F)c1` came in with an IC50 in [1] of 0.04 µM.
Take `O=C(Nc1cccc(-c2ccnc3cc(-c4ccnc(NCCCN5CCOCC5)c4)nn23)c1)c1cccc(C(F)(F)F)c1`: the IC50 in data set [1] was 0.13 µM.
Same read-out and setting: the figure for `O=C(Nc1cccc(-c2ccnc3cc(-c4ccnc(NCCCc5ncc[nH]5)c4)nn23)c1)c1cccc(C(F)(F)F)c1` is 0.066 µM; for `O=C(Nc1cccc(-c2ccnc3cc(-c4cnc[nH]4)nn23)c1)c1cccc(C(F)(F)F)c1` it is 1.6 µM.
On the same count and under the same terms, with `O=C(Nc1cccc(-c2ccnc3cc(-c4cccnc4)nn23)c1)c1cccc(C(F)(F)F)c1` the figure was over 10 µM; with `O=C(Nc1cccc(-c2ccnc3cc(-c4ccncc4)nn23)c1)c1ccc(Cl)c(Cl)c1`, 0.66 µM.
The same measure, in the same setting: the figure for `Cn1cncc1-c1cc2nccc(-c3cccc(NC(=O)c4cccc(C(F)(F)F)c4)c3)n2n1` is 0.1 µM; for `O=C(Nc1cccc(-c2ccnc3cc(-c4ccncc4)nn23)c1)c1ccc(Cl)c(C(F)(F)F)c1` it is 0.06 µM.
